The values below come from PubChem BioAssay AID179 (DTP/NCI, 2004).

Active and inactive are the calls of the source.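 The calls were made as follows: active = compounds giving half or more protection of infected cells from virus-caused growth loss, again on retest; inactive = the rest.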

The test system of this test is CEM cells HIV-1 protection, formazan growth assay. As to the kind of experiment: NCI AIDS Antiviral Assay. The conditions noted are these: for IC50: measured here: growth of uninfected CEM cells. In outline: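 CEM (human) cells, HIV-1 infected vs uninfected, 5-point dosing, formazan growth read-out. Retest threshold 50% protection.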

What is called EC50 is the concentration giving half of the maximal effect. What is called IC50 is the concentration at which inhibition is half-maximal. High values mean lower potency, low ones higher potency. On to `COc1ccc(/C=C/C(=O)c2sc(-n3nc(-c4ccccc4)cc3-c3ccccc3)nc2C)cc1`, for which the EC50 was > 11 µM and the IC50 was > 11 µM.
With `C=C(C)[C@H]1Cc2c(ccc3c2O[C@@H]2COc4cc(OC)c(OC)cc4[C@@H]2C3=O)O1`, the EC50 is > 2 µM and the half-maximal inhibitory concentration (IC50) was 0.0479 µM.
`O=c1[nH]c(=O)n(C2CC(O)C(CO)O2)cc1OCCCc1ccccc1` (stereo not given): the EC50 was > 200 µM and the IC50 is > 200 µM.
As for `CC/C=N\N1C(N)=C(C#N)C(C#N)(C#N)C1CC` (stereo not given), the EC50 was > 200 µM and the IC50 amounted to 64.6 µM.
Regarding `C[Si](C)(C)CCCS(=O)(=O)O`, the EC50 is > 200 µM and the IC50 was > 200 µM.
Regarding `CCCN(CCCCC(NC(C)=O)C(=O)NCc1ccccc1)C(=O)NC` (stereo not given), the EC50 was > 661 µM and the IC50 was > 661 µM.
Turning to `CCN(CC)C(=S)N/N=C(/C)c1cccc(/C(C)=N\NC(=S)N(CC)CC)n1`, the EC50 was > 200 µM and the concentration for half-maximal inhibition (IC50) amounted to 6.31 µM.
As to `CC(C)[C@@H]1CC[C@]2(COC(=O)CC3(CC(=O)O)CCCC3)CC[C@]3(C)[C@H](CC[C@@H]4[C@@]5(C)CC[C@H](OC(=O)CC6(CC(=O)O)CCCC6)C(C)(C)[C@@H]5CC[C@]43C)[C@@H]12`, the EC50 is > 200 µM and the IC50 turned out to be 6.46 µM.
Consider `COC(=O)c1c2c(cc3c1CC1(Cc4cc5c(cc4C1=O)CCC5)C3)CCC2` (stereo not given), for which the EC50 is > 200 µM and the IC50 came to 52.5 µM.
Consider `c1ccc(-c2ccccn2)nc1`, for which the EC50 is > 1580 µM and the IC50 was 27.5 µM.
For `CN1C(=O)CC2CCCN2C1=O` (stereo not given), the EC50 is > 200 µM and the IC50 is > 200 µM.
With `O=c1n(CC2CO2)c2ccccc2n1CC1CS1` (stereo not given), the EC50 is > 692 µM and the IC50 was found to be 12.9 µM.
In the same order, the values of `Cc1ccc(CCNC(=S)SCC(NC(=O)CCC(N)C(=O)O)C(=O)NCC(=O)O)cc1` (stereo not given) are > 102 µM and 8.71 µM.
With `CN(C)CC1CCCCCCCCCCCCC(CN(C)C)C1=O` (stereo not given), the EC50 was > 21.4 µM and the IC50 is > 21.4 µM.
On to `NCCCN(CCCN)CCCNCc1c2ccccc2c(CNCCCN(CCCN)CCCN)c2ccccc12`, for which the EC50 was 4.79 µM and the IC50 stood at 16.6 µM.
On to `N.N.N.N.N.N.O=N[O-].[Br-].[Co+3].[Co+3].[OH3+].[OH3+]`, for which the result was inactive.
As for `Cc1oc(NC(=O)C(=O)O)c(C#N)c1C`, the EC50 was > 200 µM and the IC50 was > 200 µM.
`CC(=O)O[C@H]1CC[C@@]2(C)C(=CC[C@H]3C(CC#N)[C@@](C)(C#N)CCC32)C1` (stereo not given in full): the result was inactive.
Turning to `COc1ccc(Br)c(CCCCCCCC(=O)O)c1`, the EC50 was > 100 µM and the IC50 is > 100 µM.
As for `NCCCCN(CCCN)/[N+]([O-])=N\O`, the EC50 is > 7590 µM and the IC50 is 91.2 µM.
Take `CCOC(=O)C1=C(Nc2ccccc2)OC/C1=N\NC(=O)Cc1ccccc1`: the EC50 is > 46.8 µM and the IC50 was > 46.8 µM.
For `N#CC(C(=O)CCC(=O)Nc1ccc(Cl)cc1)c1ccccc1Cl` (stereo not given), the EC50 was > 186 µM and the IC50 was > 186 µM.
Regarding `O=C(Nc1ccc(Cl)c(Cl)c1)N1c2ccccc2Sc2ccccc21`, the outcome was inactive.
Consider `Nc1ncnc2c1ncn2C1OC(CCP(=O)(O)O)C(O)C1O` (stereo not given), for which the EC50 was > 100 µM and the IC50 is > 100 µM.
As to `Cc1cc(NC(=O)c2ccc(N)cc2)ccc1N=Nc1ccc2c(O)c(N=Nc3ccc(S(=O)(=O)O)cc3C)c(S(=O)(=O)O)cc2c1`, the EC50 is 34.7 µM and the concentration for half-maximal inhibition (IC50) is > 200 µM.
For the compound `CC1(C)CC(=O)C2=C(C1)NC(SSC1=C(C#N)C(c3ccc(Br)cc3)C3=C(CC(C)(C)CC3=O)N1)=C(C#N)C2c1ccc(Br)cc1` (stereo not given), the EC50 is 36.3 µM and the IC50 came to 52.5 µM.
As for `S=c1[nH]nc(CNc2ccc(-c3n[nH]c(=S)n3-c3ccc(Cl)cc3)cc2)n1-c1ccc(Cl)cc1`, the EC50 is > 200 µM and the IC50 was determined as 31.6 µM.
Regarding `O=C1Cc2c(-c3ccccc3)cc(-c3ccccc3)nc2-c2ccccc2N1`, the EC50 was > 200 µM and the IC50 was found to be 6.17 µM.
For `N#CC[P+](c1ccccc1)(c1ccccc1)c1ccccc1`, the EC50 was > 200 µM and the IC50 came out at 141 µM.
In the case of `O=C1/C(=C/c2cccc([N+](=O)[O-])c2)COc2ccc(Br)cc21`, the EC50 is > 10.5 µM and the IC50 was > 10.5 µM.
On to `O=C(c1ccccc1)c1cn(/N=C\c2ccccc2)c(=O)nc1-c1ccccc1`, for which the result was inactive.
For `CCCOC(=O)Nc1ccc2c(c1)c1c3[nH]c(=O)c4cccn4c3ccc1n2CC`, the EC50 is > 200 µM and the IC50 was > 200 µM.
Regarding `Cc1ccc(CS(=O)C(Cl)(Cl)c2ccc(C)cc2)cc1` (stereo not given), the EC50 is > 41.7 µM and the IC50 worked out at 15.5 µM.
For `CN(C)CCCNc1c2ccccc2nc2cccc([N+](=O)[O-])c12`, the EC50 is > 0.2 µM and the IC50 stood at 0.000407 µM.
As to `COc1cc2c(o1)C(=O)N1CCc3c([nH]c4ccccc34)C21` (stereo not given), the EC50 was > 115 µM and the IC50 amounted to 64.6 µM.
As for `CNCc1c(S)ccc2ccccc12`, the outcome was inactive.
`Cc1cc(S(=O)(=O)Nc2nc(N)n(-c3ccccc3)n2)c(S)cc1Cl`: the EC50 was 129 µM and the IC50 was found to be 468 µM.
In the same order, the values of `COC(=O)c1ccccc1NC(=O)C(=O)CC(=O)CC(c1ccccc1)c1c(O)c2ccccc2oc1=O` (stereo not given) are > 490 µM and 245 µM.
For the compound `CO/S(=N/S(=O)(=O)c1ccccc1)c1ccccc1[N+](=O)[O-]` (stereo not given), the EC50 was > 380 µM and the IC50 came out at 102 µM.
In the same order, the values of `CC(C)n1cc(C(C)(C)C)nc1SSc1nc(C(C)(C)C)cn1C(C)C` are > 200 µM and > 200 µM.
Turning to `Cc1cc(O)c2c(oc3cc(O)c4c(c32)COC4=O)c1C(=O)O`, the EC50 was > 56.2 µM and the IC50 came out at 18.6 µM.
As to `O=[N+]([O-])c1ccc2nc(/C=C(\O)c3ccccc3)c(NC34CC5CC(CC(C5)C3)C4)nc2c1`, the EC50 is > 200 µM and the IC50 amounted to 182 µM.
Consider `C=C1C(=O)OC(CCCCC)C1C(=O)O` (stereo not given), for which the outcome was inactive.
Consider `Cc1cc(C)c(OC(=O)Nc2cccc3ccccc23)c(-c2ccccc2)c1`, for which the EC50 is > 200 µM and the IC50 was determined as 19.5 µM.
In the case of `Cn1c2c(c3ccccc31)C1CCCCC1C1C(=O)NC(=O)C21` (stereo not given), the result was inactive.
Consider `C=C1C(=O)OC2CC(C)C3C=CC(=O)C3CC12` (stereo not given), for which the EC50 was > 200 µM and the IC50 was 0.537 µM.
Regarding `COC(=O)N[C@H](C(=O)NC(OCc1ccccc1)C1COC(C)(C)O1)C(C)O[Si](C)(C)C(C)(C)C` (stereo not given in full), the EC50 was > 70.8 µM and the IC50 is > 70.8 µM.
As for `O=C1/C(=C/c2cc3c(=O)c4ccccc4sc3s2)NC(=S)N1c1ccccc1`, the EC50 is > 200 µM and the IC50 was > 200 µM.
Consider `CN(C)C(=O)/N=C1\SC(=Nc2ccccc2)C(=Nc2ccccc2)N1c1ccc([N+](=O)[O-])cc1`, for which the result was inactive.
With `C[C@@H](c1ccccc1)N1CO[C@@]2(C#Cc3ccc4c(c3)OCO4)CCC[C@@H]12`, the EC50 is > 200 µM and the IC50 is 33.1 µM.
For the compound `CCCCc1ccc(-n2sc3ncc([N+](=O)[O-])cc3c2=O)cc1`, the EC50 was > 17 µM and the IC50 was found to be 10 µM.
Regarding `CN1CCCNC(=S)C1`, the outcome was inactive.
